Assay results published in patent US9839642B2, “Beta-tetrazolyl-propionic acids as metallo-beta-lactamase inhibitors” (priority 2014, dated 2017).
Where two headings read alike, the source gives them in different places.

How the values were obtained:
[1] = biological target: IMP-1 (Serratia marcescens, UniProt P52699); experiment: Enzyme activity: determination of IC50, fluorescence assay with CCF2-FA substrate; type: biochemical; settings: CCF2-FA 1.25 μM, 2 hours at 25° C., read-out: IMP1 IC50
Sequence of IMP-1 (P52699 19-246, looked up, species assumed): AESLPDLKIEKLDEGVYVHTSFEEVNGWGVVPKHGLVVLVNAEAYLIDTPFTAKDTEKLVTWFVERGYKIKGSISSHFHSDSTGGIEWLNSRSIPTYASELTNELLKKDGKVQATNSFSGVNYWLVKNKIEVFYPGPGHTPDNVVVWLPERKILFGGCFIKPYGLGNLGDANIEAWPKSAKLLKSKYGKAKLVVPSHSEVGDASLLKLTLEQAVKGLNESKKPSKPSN
Method in brief: (§1)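 In pH 7 phosphate buffer (100 mM) with 10 μM ZnSO4 and 0.005% Tween-20, CCF2-FA substrate (1.25 μM final) was hydrolysed for 2 h at 25 °C by NDM-1, IMP-1 or VIM-1 at 1, 2 or 30 pM in the presence of inhibitor at 20–0.00063 μM. Emission 460 nm/excitation 405 nm; 4-parameter curve fit gave IC50.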

[2] = biological target: NDM-1 (Klebsiella pneumoniae, UniProt C7C422); experiment: as above; type: biochemical; settings: CCF2-FA 1.25 μM, 2 hours at 25° C., read-out: NDM1 IC50
Sequence of NDM-1 (C7C422 29-270, looked up, species assumed): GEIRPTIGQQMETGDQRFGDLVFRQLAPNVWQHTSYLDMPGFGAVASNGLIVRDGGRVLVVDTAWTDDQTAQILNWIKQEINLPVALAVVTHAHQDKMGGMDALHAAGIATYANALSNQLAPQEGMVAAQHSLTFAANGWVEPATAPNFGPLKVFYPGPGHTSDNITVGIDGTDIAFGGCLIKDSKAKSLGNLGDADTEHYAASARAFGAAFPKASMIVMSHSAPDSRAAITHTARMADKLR
Method in brief: as §1

[3] = biological target: VIM-1 (Pseudomonas aeruginosa, UniProt A0A0F7KYQ8); experiment: as above; type: biochemical; settings: CCF2-FA 1.25 μM, 2 hours at 25° C., read-out: VIM1 IC50
Method in brief: as §1

[4] = system: Escherichia coli expressing NDM-1 (CLB30005); experiment: Antibiotic potentiation activity: synergistic concentration (MITC95) with imipenem, growth by OD600; type: cell-based
Method in brief: (§2)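 MITC95 = lowest inhibitor concentration giving 95% growth inhibition, read by absorbance after 22–24 h at 35° C. Compound range 200 μM to 0.195 μM, imipenem fixed at 1 or 4 μg/ml, bacteria in 1.1×CAMHB from saline suspension diluted 1:100.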

[5] = system: Klebsiella pneumoniae expressing VIM-1 (IHMA599644); experiment: as above; type: cell-based
Method in brief: as §2

[6] = system: Serratia marcescens expressing IMP-1 (CL5741); experiment: as above; type: cell-based
Method in brief: as §2

[7] = 95% inhibition of bacterial growth, strain CLB30005
[8] = 95% inhibition of bacterial growth, strain IHMA599644
[9] = 95% inhibition of bacterial growth, strain CL5741
[10] = E. coli CLB30005 (NDM-1), 95% inhibition of growth
[11] = K. pneumoniae IHMA599644 (VIM-1), 95% inhibition of growth
[12] = S. marcescens CL5741 (IMP-1), 95% inhibition of growth

SMILES	IC50 ([1]; enzyme 2 pM)	IC50 ([2]; enzyme 1 pM)	IC50 ([3]; enzyme 30 pM)	NDM1 EC30005 MITC95 [4, 7]	VIM1 KP599644 MITC95 [5, 8]	IMP1 SM5741 MITC95 [6, 9]	IC50 ([1]; IMP-1 enzyme 2 pM)	IC50 ([2]; NDM-1 enzyme 1 pM)	IC50 ([3]; VIM-1 enzyme 30 pM)	NDM1 EC30005 MITC95 [4, 10]	VIM1 KP599644 MITC95 [5, 11]	IMP1 SM5741 MITC95 [6, 12]
O=C(O)CCCC[C@H](C(=O)O)[C@H](Cc1ccccc1)c1nnn[nH]1 [Example 34, (S)-2-((S)-2-phenyl-1-(1H-tetrazol-5-yl)ethyl)heptanedioic acid]	1500 nM	200 nM	40 nM	25 µM	200 µM	200 µM						
CC(C)CCCCC[C@H](C(=O)O)[C@H](Cc1ccc2c(c1)OCO2)c1nnn[nH]1 [Example 38, (2S)-2-[(1S)-2-(1,3-benzodioxol-5-yl)-1-(2H-tetrazol-5-yl)ethyl]-8-methylnonanoic acid]	49 nM	12 nM	5.5 nM	100 µM	>200 µM	31 µM						
C[C@@H](c1ccccc1)[C@H](c1nnn[nH]1)[C@H](CCF)C(=O)O [Example 28, (2S,3S,4R)-2-(2-fluoroethyl)-4-phenyl-3-(1H-tetrazol-5-yl)pentanoic acid]	1800 nM	310 nM	190 nM	200 µM	>200 µM	>200 µM						
CCC[C@H](C(=O)O)[C@H](Cc1ccc(-c2cnn(C)c2)cc1)c1nnn[nH]1 [Example 233, (2S)-2-[(1S)-2-[4-(1-methyl-1H-pyrazol-4-yl)phenyl]-1-(1H-tetrazol-5-yl)ethyl]pentanoic acid]	52 nM	18 nM	4 nM	18.8 µM	75 µM	16 µM						
CCC[C@H](C(=O)O)[C@H](Cc1ccc(CCN2CCCCC2=O)cc1)c1nn[nH]n1 [Example 256, (2S)-2-[(1S)-2-{4-[2-(2-oxopiperidin-1-yl)ethyl]phenyl}-1-(2H-tetrazol-5-yl)ethyl]pentanoic acid]							45 nM	27 nM	16 nM	10.4 µM	150 µM	6.2 µM
CCC[C@H](C(=O)O)[C@H](Cc1ccc(CN2CCN(C)CC2)cc1)c1nn[nH]n1 [Example 251, (2S)-2-[(1S)-2-{4-[(4-methylpiperazin-1-yl)methyl]phenyl}-1-(2H-tetrazol-5-yl)ethyl]pentanoic acid]							1300 nM	330 nM	430 nM	8.3 µM	75 µM	38 µM
CCC[C@H](C(=O)O)[C@H](Cc1ccc(CCC(O)CO)cc1)c1nn[nH]n1 (stereo partly drawn) [Example 255, (2S)-2-[(1S)-2-[4-(3,4-dihydroxybutyl)phenyl]-1-(2H-tetrazol-5-yl)ethyl]pentanoic acid]							190 nM	44 nM	12 nM	10.4 µM	50 µM	18.8 µM
O=C(O)[C@@H](CCCC1CCNCC1)[C@H](Cc1ccccc1)c1nnn[nH]1 [Example 36, (S)-2-((S)-2-phenyl-1-(1H-tetrazol-5-yl)ethyl)-5-(piperidin-4-yl)pentanoic acid]	2000 nM	30 nM	21 nM	60 µM	100 µM	108 µM						
CCC[C@H](C(=O)O)[C@H](Cc1ccc(C[C@@H]2CCCOC2)cc1)c1nn[nH]n1 [Example 257, (2S)-2-[(1S)-2-{4-[(3S)-tetrahydro-2H-pyran-3-ylmethyl]phenyl}-1-(2H-tetrazol-5-yl)ethyl]pentanoic acid]							33 nM	13 nM	14 nM	7.3 µM	200 µM	6.2 µM
CCCC(C)[C@H](C(=O)O)[C@H](Cc1ccccc1)c1nnn[nH]1 (stereo partly drawn) [Example 18, (2S)-3-methyl-2-((S)-2-phenyl-1-(1H-tetrazol-5-yl)ethyl)hexanoic acid]	30 nM	26 nM	36 nM	18.8 µM	200 µM	37.5 µM						
O=C(O)[C@@H](CC1CC1)[C@H](Cc1ccccc1)c1nnn[nH]1 [Example 13, (2S,3S)-2-(cyclopropylmethyl)-4-phenyl-3-(1H-tetrazol-5-yl)butanoic acid]	460 nM	128 nM	16 nM	12.5 µM	50 µM	150 µM						
CC(C)=CCC[C@@H](C(=O)O)[C@H](Cc1ccccc1)c1nnn[nH]1 [Example 14, (2R)-6-methyl-2-[(1S)-2-phenyl-1-(1H-tetrazol-5-yl)ethyl]hept-5-enoic acid]	1600 nM	150 nM	37 nM	15.6 µM	100 µM	200 µM						
CCC(C)[C@H](C(=O)O)[C@H](Cc1ccccc1)c1nnn[nH]1 (stereo partly drawn) [Example 19, (2S)-3-methyl-2-((S)-2-phenyl-1-(1H-tetrazol-5-yl)ethyl)pentanoic acid]	62 nM	31 nM	24 nM	9.4 µM	50 µM	50 µM						
CC(C)CCC[C@@H](C(=O)O)[C@H](Cc1ccccc1)c1nnn[nH]1 [Example 2, (R)-6-methyl-2-((S)-2-phenyl-1-(1H-tetrazol-5-yl)ethyl)heptanoic acid]	68 nM	5400 nM	8200 nM	>200 µM	>200 µM	100 µM						
CCC[C@H](C(=O)O)[C@H](Cc1ccc(-c2cnn(Cc3ccncc3)c2)cc1)c1nnn[nH]1 [Example 250, (2S)-2-[(1S)-2-{4-[1-(pyridin-4-ylmethyl)-1H-pyrazol-4-yl]phenyl}-1-(1H-tetrazol-5-yl)ethyl]pentanoic acid]							82 nM	9.6 nM	7.5 nM	25 µM	>200 µM	200 µM
O=C(O)[C@@H](CCF)[C@H](Cc1ccccc1)c1nnn[nH]1 [Example 21, (2S,3S)-2-(2-fluoroethyl)-4-phenyl-3-(1H-tetrazol-5-yl)butanoic acid]	2700 nM	190 nM	15 nM	75 µM	>200 µM	>200 µM						
CCC[C@H](C(=O)O)[C@H](Cc1ccc(C2=CCCN(C)C2)cc1)c1nnn[nH]1 [Example 243, (2S)-2-[(1S)-2-[4-(1-methyl-1,2,5,6-tetrahydropyridin-3-yl)phenyl]-1-(1H-tetrazol-5-yl)ethyl]pentanoic acid]	500 nM	400 nM	3.8 nM	18.8 µM	25 µM	25 µM						
CCC[C@H](C(=O)O)[C@H](Cc1ccc(-c2cnc(CO)s2)cc1)c1nnn[nH]1 [Example 249]							46 nM	8.4 nM	1.9 nM	100 µM	100 µM	>200 µM
CCC[C@@H](C(=O)O)[C@H](Cc1ccc(-c2ccc3nnn(C)c3c2)cc1)c1nnn[nH]1 [Example 248, (2R)-2-[(1S)-2-[4-(1-methyl-1H-benzotriazol-6-yl)phenyl]-1-(1H-tetrazol-5-yl)ethyl]pentanoic acid]							4700 nM	700 nM	230 nM	100 µM	>200 µM	>200 µM
CCC[C@H](C(=O)O)[C@H](Cc1ccc(-c2cn(C)c(=O)n(C)c2=O)cc1)c1nn[nH]n1 [Example 212, (2S)-2-[(1S)-2-[4-(1,3-dimethyl-2,4-dioxo-1,2,3,4-tetrahydropyrimidin-5-yl)phenyl]-1-(2H-tetrazol-5-yl)ethyl]pentanoic acid]	91 nM	31 nM	15 nM	18.8 µM	150 µM	18.8 µM						
CC[C@H](C(=O)O)[C@H](Cc1ccccc1)c1nnn[nH]1 [Example 8, (2S,3S)-2-ethyl-4-phenyl-3-(1H-tetrazol-5-yl)butanoic acid]	1800 nM	81 nM	21 nM	9.4 µM	62.5 µM	125 µM						
